Data set [1] deals with T1, α7-nAChRs (Mus musculus, UniProt P49582). The note with it: CD1 mice, i.v.; frontal cortex, thalamus, striatum, hippocampus; post-injection.
Data set [2] has as its target T1, α7-nAChRs. Briefly: blocking dissection study with PHA543613 in mice. The note with it: PHA543613 0.5 mg/kg s.c., 15 min before tracer; 90 min after tracer.

2 compounds from article PMC3527104 (Bioorganic & medicinal chemistry, 2012) can be followed below.

T1 sequence (P49582 23-502): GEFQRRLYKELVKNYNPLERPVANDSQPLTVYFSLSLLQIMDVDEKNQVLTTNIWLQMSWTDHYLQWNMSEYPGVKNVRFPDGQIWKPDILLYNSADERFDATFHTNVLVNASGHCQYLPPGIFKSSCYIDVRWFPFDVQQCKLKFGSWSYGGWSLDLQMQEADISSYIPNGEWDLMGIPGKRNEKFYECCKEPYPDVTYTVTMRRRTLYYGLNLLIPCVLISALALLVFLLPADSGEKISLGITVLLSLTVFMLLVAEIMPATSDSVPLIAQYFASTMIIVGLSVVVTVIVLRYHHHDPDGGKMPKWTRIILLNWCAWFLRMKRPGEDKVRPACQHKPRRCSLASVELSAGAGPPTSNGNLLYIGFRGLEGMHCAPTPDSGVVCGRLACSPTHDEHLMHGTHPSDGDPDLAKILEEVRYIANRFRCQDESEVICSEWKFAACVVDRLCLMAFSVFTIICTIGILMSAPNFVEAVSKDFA

With `[11CH3]N1CC2CN(c3ccc(-c4ccc5[nH]ccc5c4)nc3)CC21` (racemic) [[^11C]rac-1, 5-(5-(6-[^11C]methyl-3,6-diazabicyclo[3.2.0]heptan-3-yl)pyridin-2-yl)-1H-indole], the “time of peak radioactivity accumulation” value at α7-nAChRs [1] stood at 30 min.
On to `O=C(N[C@H]1CN2CCC1CC2)c1cc2ccoc2cn1` [PHA543613], for which, on α7-nAChRs [2], the “blockade of [^11C]rac-1 binding in the cerebellum” value is on record as “minimal”; the “inhibition of [^11C]rac-1 binding in hippocampus and frontal cortex” value is on record as “significantly inhibited”.
